Data reported in patent US20070135453A1, “6-(2,4,6-Trihalophenyl)triazolopyrimidines, their preparation and their use for controlling harmful fungi, and compositions comprising these compounds” (BASF Aktiengesellschaft, priority 2003, published 2007).

What was measured:
Pyrenophora teres = assay: Activity against net blotch of barley caused by Pyrenophora teres, protective application; type: in vivo; settings: 250 ppm, protective spray, assessed after 6 days, untreated plants 90% infected
Protocol: (§1) The active compounds were prepared as a stock solution with 25 mg of active compound which was made up to 10 ml using a mixture of acetone and/or DMSO and the emulsifier Uniperol® EL (wetting agent having emulsifying and dispersing action based on ethoxylated alkylphenols) in a volume ratio of solvent/emulsifier of 99 to 1.
(§2) The mixture was then made up with water to 100 ml. This stock solution was diluted with the solvent/emulsifier/water mixture described to the concentration of active compounds stated below.
Use Example 1—Activity Against Net blotch of Barley Caused by Pyrenophora teres, Protective Application
Leaves of potted barley seedlings of the cultivar “Hanna” were sprayed to runoff point with an aqueous suspension having the concentration of active compounds stated below. 24 hours after the spray coating had dried on, the test plants were inoculated with an aqueous spore suspension of Pyrenophora [syn. Drechslera]teres, the net blotch pathogen. The test plants were then placed in a greenhouse at temperatures between 20 and 24° C. and 95 to 100% relative atmospheric humidity. After 6 days, the extent of the development of the disease was determined visually in % infection of the entire leaf area.

Botrytis cinerea = assay: Activity against gray mold on bell-pepper leaves caused by Botrytis cinerea, protective application; type: in vivo; settings: 250 ppm, protective spray, assessed after 5 days, untreated plants 100% infected
Protocol: as §1, §2
Use Example 2—Activity Against Gray Mold on Bell-Pepper Leaves Caused by Botrytis cinerea, Protective Application
Bell-pepper seedlings of the cultivar “Neusiedler Ideal Elite” were, after 2 to 3 leaves were well developed, sprayed to runoff point with an aqueous suspension having the concentration of active compounds stated below. The next day, the treated plants were inoculated with a spore suspension of Botrytis cinerea which contained 1.7×10^6 spores/ml in a 2% aqueous biomold solution. The test plants were then placed in a dark acclimatized chamber at 22 to 24° C. and high atmospheric humidity. After 5 days, the extent of the fungal infection on the leaves could be determined visually in %.

CC1CCN(c2c(-c3c(Cl)cc(Cl)cc3Cl)c(C#N)nc3ncnn23)CC1 [Example 1, 5-cyano-6-(2,4,6-trichlorophenyl)-7-(4-methylpiperidinyl)-1,2,4-triazolo[1,5a]pyrimidine]
infection of the entire leaf area (Pyrenophora teres): about 1%
fungal infection on the leaves (Botrytis cinerea): about 7%
